The record followed here is ChEMBL document CHEMBL1201862, “PubChem BioAssay data set” (2004).

Structures are written as SMILES.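 Results reflect a 48-hour exposure of cells in 96-well plates to compound at five concentrations. GI50: concentration for 50% inhibition of growth.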 Calls of active or inactive are those of the source. Rule as the data show it: active = GI50 up to about 1.1 µM and inactive = higher. A value given as a limit tells only on which side of the number the result lay.

Test systems include COLO 205; MDA-MB-231; UACC-257; SF-268; M14; MOLT-4; A498; UO-31; LOX IMVI; SR; NCI-H522; ACHN; OVCAR-4; Malme-3M; OVCAR-3; RXF 393; IGROV-1; SK-MEL-5; SN12C.
Holding throughout (assay): inhibition of tumour cell growth, NCI panel, 48 h

On to `Cc1ccc([S+]([O-])C[C@](NC(=O)OCc2ccccc2)(Sc2ccccc2)C(F)F)cc1` (stereo partly drawn), for which the GI50 in the assay on COLO 205 was 19.4 µM (inactive); in the assay with MDA-MB-231, 19.4 µM (inactive); in the assay with UACC-257, 15 µM (inactive); in the assay on SF-268, 16.9 µM (inactive); with M14, 33.3 µM (inactive); in the assay on MOLT-4, 3.4 µM (inactive). The GI50 with A498 was 13.5 µM (inactive); with UO-31, 6.56 µM (inactive); with LOX IMVI, 4.16 µM (inactive); in the assay with SR it was 10.8 µM (inactive); with NCI-H522 it was 7.13 µM (inactive); with ACHN it was 20.7 µM (inactive). The GI50 is 13.2 µM (inactive) in the assay with OVCAR-4; 21.3 µM (inactive) with Malme-3M; 24.3 µM (inactive) in the assay with OVCAR-3; 21.7 µM (inactive) with RXF 393; 8.69 µM (inactive) with IGROV-1; 13.3 µM (inactive) with SK-MEL-5.
With `Cc1cc(S(=O)(=O)NC2=Nc3ccccc3C(c3ccccc3)N2)c(S)cc1Cl` (stereo not drawn), the GI50 is > 100 µM (inactive) with COLO 205; 95.3 µM (inactive) with MDA-MB-231; > 100 µM (inactive) with UACC-257; 39 µM (inactive) in the assay on SF-268; > 100 µM (inactive) in the assay on M14; 81.8 µM (inactive) in the assay with MOLT-4. Moreover, the GI50 is > 100 µM (inactive) in the assay with A498; 24.9 µM (inactive) in the assay on UO-31; 39.3 µM (inactive) with LOX IMVI; 23.3 µM (inactive) in the assay on SR; 50.7 µM (inactive) with SN12C; > 100 µM (inactive) in the assay on NCI-H522. Moreover, the GI50 was > 100 µM (inactive) with ACHN; 13.6 µM (inactive) in the assay with OVCAR-4; > 100 µM (inactive) in the assay with Malme-3M; > 100 µM (inactive) in the assay on OVCAR-3; 48.2 µM (inactive) with RXF 393; > 100 µM (inactive) in the assay with IGROV-1. The GI50 with SK-MEL-5 was > 100 µM (inactive).
Take `COc1cc2c(cc1OC)C1(c3ccccc3)CN(C2)Cc2cc(OC)c(OC)cc21`: the GI50 with COLO 205 was 17.1 µM (inactive); in the assay with MDA-MB-231, 24.3 µM (inactive); in the assay on UACC-257, 40.2 µM (inactive); with SF-268 it was 49.9 µM (inactive); in the assay with M14 it was 23.9 µM (inactive); in the assay with MOLT-4 it was 25.5 µM (inactive). The GI50 is 35.2 µM (inactive) in the assay on A498; 80.9 µM (inactive) in the assay with UO-31; 34.8 µM (inactive) in the assay on LOX IMVI; 5.3 µM (inactive) with SR; > 100 µM (inactive) in the assay with SN12C; 26.2 µM (inactive) with NCI-H522. Also, the GI50 with ACHN is 54.1 µM (inactive); in the assay on OVCAR-4, 23.3 µM (inactive); in the assay with Malme-3M, 36.4 µM (inactive); with OVCAR-3, 54.6 µM (inactive); with RXF 393, 22.8 µM (inactive); in the assay with IGROV-1, 35.2 µM (inactive). The GI50 with SK-MEL-5 was 18.6 µM (inactive).
With `C=C(C)C[C@H](Sc1nc2ccccc2s1)[C@H](C)O`, the GI50 in the assay with COLO 205 is 35.5 µM (inactive); in the assay with MDA-MB-231, 73.6 µM (inactive); with UACC-257, 32.4 µM (inactive); with SF-268, 42.3 µM (inactive); in the assay with M14 it was 77.3 µM (inactive); in the assay with MOLT-4, 16.4 µM (inactive). Further, the GI50 in the assay on A498 is 27.2 µM (inactive); in the assay with UO-31, 69 µM (inactive); with LOX IMVI, 39.4 µM (inactive); with SR, 30.3 µM (inactive); with SN12C it was 45.4 µM (inactive); in the assay on NCI-H522, 23.8 µM (inactive). Moreover, the GI50 in the assay with ACHN is > 100 µM (inactive); in the assay on OVCAR-4, 70.1 µM (inactive); in the assay with Malme-3M, 25.6 µM (inactive); in the assay on OVCAR-3, 18.8 µM (inactive); in the assay with RXF 393 it was 48.3 µM (inactive); in the assay with IGROV-1 it was > 100 µM (inactive). Besides, the GI50 in the assay on SK-MEL-5 was 18.1 µM (inactive).
For the compound `COCCCNc1c2ccccc2nc2ccccc12`, the GI50 in the assay on COLO 205 is 2.11 µM (inactive); with MDA-MB-231 it was 3.25 µM (inactive); in the assay on UACC-257, 2.42 µM (inactive); in the assay with SF-268, 3.75 µM (inactive); with M14, 2.01 µM (inactive); in the assay on MOLT-4, 3.57 µM (inactive). The GI50 is 3.97 µM (inactive) with A498; 2.05 µM (inactive) with UO-31; 2.22 µM (inactive) in the assay on LOX IMVI; 2.86 µM (inactive) in the assay with SR; 3.24 µM (inactive) in the assay with SN12C; 1.64 µM (inactive) in the assay on NCI-H522. The GI50 with ACHN is 0.813 µM (active); with OVCAR-4 it was 2.64 µM (inactive); with Malme-3M it was 1.87 µM (inactive); in the assay on OVCAR-3 it was 2.47 µM (inactive); in the assay with RXF 393, 3.35 µM (inactive); in the assay with IGROV-1, 3.56 µM (inactive). For the same compound, the GI50 in the assay with SK-MEL-5 was 2.14 µM (inactive).
On to `O=C1C/C(=C\c2ccccc2)C(=O)c2ccccc2N1`, for which the GI50 was 20 µM (inactive) in the assay with COLO 205; 23.8 µM (inactive) in the assay with MDA-MB-231; 26.9 µM (inactive) in the assay on UACC-257; 38.2 µM (inactive) with SF-268; 23.2 µM (inactive) in the assay with M14; 45.5 µM (inactive) with MOLT-4. In addition, the GI50 was 18.8 µM (inactive) in the assay on A498; 20.6 µM (inactive) in the assay with LOX IMVI; 42.8 µM (inactive) in the assay with SR; 18.5 µM (inactive) with SN12C; 22.9 µM (inactive) in the assay on NCI-H522; 25.1 µM (inactive) in the assay on ACHN. In addition, the GI50 in the assay on OVCAR-4 is 20 µM (inactive); with Malme-3M it was 17.5 µM (inactive); in the assay with OVCAR-3 it was 25 µM (inactive); in the assay on RXF 393 it was 19.6 µM (inactive); with IGROV-1 it was 18.6 µM (inactive); in the assay with SK-MEL-5, 20.3 µM (inactive).
Regarding `COc1cc(/C=C2/SC(c3ccccc3)N(Cc3ccccc3)C2=O)cc(OC)c1OC` (stereo not drawn), the GI50 in the assay on COLO 205 is 19.8 µM (inactive); in the assay on MDA-MB-231, > 100 µM (inactive); in the assay with UACC-257 it was 33.7 µM (inactive); in the assay with SF-268 it was 48.1 µM (inactive); in the assay on M14, 75.3 µM (inactive); in the assay with MOLT-4, 14.4 µM (inactive). The GI50 is 49.1 µM (inactive) in the assay on A498; 40.5 µM (inactive) in the assay on UO-31; 34.8 µM (inactive) with LOX IMVI; 14.2 µM (inactive) with SR; 21.5 µM (inactive) in the assay with SN12C; 17.2 µM (inactive) in the assay on NCI-H522. Also, the GI50 with ACHN is 44.8 µM (inactive); in the assay on OVCAR-4, 31.4 µM (inactive); in the assay on Malme-3M, 38.4 µM (inactive); in the assay with OVCAR-3, 33.7 µM (inactive); in the assay with RXF 393, 7.14 µM (inactive); in the assay with SK-MEL-5, 12.1 µM (inactive).
As to `CCOP(=O)(OCC)[C@]12C[C@@H](C)C=C[C@H]1COC2=O`, the GI50 in the assay on COLO 205, in the assay with MDA-MB-231, in the assay on UACC-257, with SF-268, with M14 and in the assay on MOLT-4 was > 100 µM (inactive) each time. Also, the GI50 in the assay on A498, in the assay on UO-31, in the assay on LOX IMVI, with SR, with SN12C and in the assay with NCI-H522 was > 100 µM (inactive) each time. Further, the GI50 in the assay on ACHN, with OVCAR-4, in the assay on Malme-3M, in the assay with OVCAR-3, in the assay with RXF 393 and with SK-MEL-5 was > 100 µM (inactive) in each case.
